ChEMBL document CHEMBL5729761, “Polycyclic compounds as allosteric SHP2 inhibitors” (2023)

Target: T1, Tyrosine-protein phosphatase non-receptor type 11 (Homo sapiens, UniProt Q06124)
T1 sequence (Q06124 whole entry): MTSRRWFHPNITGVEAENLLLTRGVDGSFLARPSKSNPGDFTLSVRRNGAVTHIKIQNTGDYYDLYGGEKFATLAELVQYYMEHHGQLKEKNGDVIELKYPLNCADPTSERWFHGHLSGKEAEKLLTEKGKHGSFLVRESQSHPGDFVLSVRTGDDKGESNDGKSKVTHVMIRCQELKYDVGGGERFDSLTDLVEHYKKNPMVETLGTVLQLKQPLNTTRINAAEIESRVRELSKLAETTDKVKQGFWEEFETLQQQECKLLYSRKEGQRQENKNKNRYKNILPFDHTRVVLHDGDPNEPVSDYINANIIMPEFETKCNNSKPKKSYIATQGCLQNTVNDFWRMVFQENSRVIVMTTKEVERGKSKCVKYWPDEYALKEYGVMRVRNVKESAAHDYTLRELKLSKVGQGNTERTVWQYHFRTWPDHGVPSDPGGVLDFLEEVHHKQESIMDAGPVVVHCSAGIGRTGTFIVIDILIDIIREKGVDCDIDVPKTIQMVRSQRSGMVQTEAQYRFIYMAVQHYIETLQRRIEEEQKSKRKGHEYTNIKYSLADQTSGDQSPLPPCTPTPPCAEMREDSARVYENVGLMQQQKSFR
Assay: SHP2 Allosteric Inhibition Assay: The inhibition of SHP2 by compounds of the invention (concentrations varying from 0.00005-10 μM) was monitored using an assay in which 0.2 nM of SHP2 was incubated with 0.5 μM of Activating Peptide 1 (sequence: H2N LN(pY)IDLDLV(dPEG8)LST(pY)ASINFQK-amide) or Activating Peptide 2 (sequence: H2N-LN(pY)AQLWHA(dPEG8)LTI(pY)ATIRRF-amide). After 30-60-minutes incubation at 25° C., the surrogate substrate DiFMUP (Invitrogen, Cat #D6567) was added to the reaction and activity was determined by a kinetic read using a microplate reader (Envision, Perkin-Elmer or Spectramax M5, Molecular Devices). The excitation and emission wavelengths were 340 nm and 450 nm, respectively. Initial rates were determined from a linear fit of the data, and the inhibitor dose response curves were analyzed using normalized IC50 regression curve fitting with control based normalization.

Compound: Cc1nc(N2CCC3(CC2)CO[C@@H](C)[C@H]3N)n2ccnc2c1-c1ccc2nccnc2c1
- IC50: < 50 nM
